Test results: PubChem BioAssay (NCI)
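Exposure lasted 48 hours, with cells grown in 96-well plates and compounds tested at five concentrations. At the TGI there is no net growth.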

Columns and labels:
Experiment in all cases: DTP human tumour cell line panel, 48 h
[1] = system: HOP-62 NSCLC
[2] = system: MDA-N
[3] = system: SK-MEL-2 melanoma
[4] = system: HT29 colon
[5] = system: UO-31 renal
[6] = system: LOX IMVI melanoma
[7] = system: M14 melanoma
[8] = system: OVCAR-4 ovarian
[9] = system: MALME-3M melanoma
[10] = system: A549 NSCLC
[11] = system: 786-0 renal
[12] = system: U251 CNS
[13] = system: RPMI-8226 leukemia
[14] = system: OVCAR-5 ovarian
[15] = system: NCI/ADR-RES ovarian
[16] = system: CAKI-1 renal
[17] = system: OVCAR-8 ovarian
[18] = system: KM12 colon
[19] = system: UACC-257 melanoma
[20] = system: ACHN renal
[21] = system: HCC-2998 colon
[22] = system: NCI-H23 lung
[23] = system: SN12C renal
[24] = system: SNB-19 CNS
[25] = system: CCRF-CEM leukemia
[26] = system: COLO 205 colon
[27] = system: EKVX NSCLC
[28] = system: SK-MEL-28 melanoma
[29] = system: BT-549 breast
[30] = system: NCI-H460 lung
[31] = system: A498 renal
[32] = system: UACC-62 melanoma
[33] = system: NCI-H226 lung
[34] = system: SNB-75 CNS
[35] = system: K-562 leukemia
[36] = system: HCT-15 colon
[37] = system: SF-295 CNS
[38] = system: MCF7 breast
[39] = system: OVCAR-3 ovarian
[40] = system: MDA-MB-231 breast
[41] = system: RXF 393 renal
[42] = system: HCT-116 colon
[43] = system: DU-145 prostate
[44] = system: HOP-92 NSCLC
[45] = system: SW-620 colon
[46] = system: IGROV1 ovarian
[47] = system: HL-60(TB) leukemia
[48] = system: NCI-H522 lung
[49] = system: SR leukemia
[50] = system: HS 578T breast
[51] = system: SF-539 CNS
[52] = system: MDA-MB-435
[53] = system: SF-268 CNS
[54] = system: T-47D breast
[55] = system: SK-MEL-5 melanoma
[56] = system: MOLT-4 leukemia
[57] = system: PC-3 prostate

Question: Which results are given for CC1(C)Oc2ccc3ccc(=O)oc3c2C(O)C1O (configuration not stated)?
Answer: TGI [1]: > 100 µM; TGI [2]: > 100 µM; TGI [3]: > 100 µM; TGI [4]: 71.3 µM; TGI [5]: > 100 µM; TGI [6]: > 100 µM; TGI [7]: > 100 µM; TGI [8]: > 100 µM; TGI [9]: > 100 µM; TGI [10]: > 100 µM; TGI [11]: > 100 µM; TGI [12]: > 100 µM; TGI [13]: 97.9 µM; TGI [14]: > 100 µM; TGI [15]: > 100 µM; TGI [16]: > 100 µM; TGI [17]: > 100 µM; TGI [18]: > 100 µM; TGI [19]: 94.9 µM; TGI [20]: > 100 µM; TGI [21]: > 100 µM; TGI [22]: > 100 µM; TGI [23]: > 100 µM; TGI [24]: > 100 µM; TGI [25]: 96.9 µM; TGI [26]: 45.1 µM; TGI [27]: > 100 µM; TGI [28]: > 100 µM; TGI [29]: 60.9 µM; TGI [30]: > 100 µM; TGI [31]: > 100 µM; TGI [32]: > 100 µM; TGI [33]: > 100 µM; TGI [34]: > 100 µM; TGI [35]: > 100 µM; TGI [36]: > 100 µM; TGI [37]: > 100 µM; TGI [38]: > 100 µM; TGI [39]: > 100 µM; TGI [40]: > 100 µM; TGI [41]: > 100 µM; TGI [42]: > 100 µM; TGI [43]: > 100 µM; TGI [44]: > 100 µM; TGI [45]: > 100 µM; TGI [46]: > 100 µM; TGI [47]: > 100 µM; TGI [48]: > 100 µM; TGI [49]: > 100 µM; TGI [50]: > 100 µM; TGI [51]: 47.8 µM; TGI [52]: > 100 µM; TGI [53]: > 100 µM; TGI [54]: > 100 µM; TGI [55]: 29.4 µM; TGI [56]: 53 µM; TGI [57]: > 100 µM
